Measurements as given in patent US10196395B2, “Crystalline form alpha of IPI-145 and preparation method thereof” (CRYSTAL PHARMATECH CO., LTD., priority 2015, dated 2019).
“Also recorded” adds a separate entry of the source. One block for each compound: values may come before it.

Experiments:
[1] = Stability assessment: 1:1 mixture of Form α and anhydrous Form A stirred in tetrahydrofuran, solid tested by XRPD; type: physicochemical; conditions: 25° C. and 50° C.
Protocol: Form α of the present disclosure and anhydrous Form A in CN103648499A were mixed with a mass ratio of 1:1 and stirred in tetrahydrofuran at 5° C., 25° C. and 50° C. at a rate of 500 r/min for 24 h.

[2] = cited from earlier work
[3] = Hygroscopicity assessment by dynamic vapor sorption (DVS); type: physicochemical; conditions: 25° C.; for Weight gain under 80% RH: DVS, 10 mg
Protocol: Dynamic Vapor Sorption (DVS) was measured via Dynamic Vapor Sorption Intrinsic manufacture by SMS's (Surface Measurement Systems Ltd.). Typical Parameters for DVS test were listed below.
Gas and flow rate: N2, 200 mL/min
RH range: 0% RH to 95% RH
Hygroscopicity of 10 mg Form α of the present invention was tested using dynamic vapor sorption (DVS).
About hygroscopicity characterization description and definition of hygroscopicity (Chinese Pharmacopoeia 2010 edition appendix XIXJ Drug hygroscopic test guidelines, test at 25° C.±1, 80% Relative Humidity) • deliquescent: sufficient water is absorbed to form a liquid; • very hygroscopic: increase in mass is equal to or greater than 15 percent; • hygroscopic: increase in mass is less than 15 percent and equal to or greater than 2 percent; • slightly hygroscopic: increase in mass is less than 2 percent and equal to or greater than 0.2 percent; • no or almost no hygroscopic: increase in mass is less than 0.2%.

Form conversion on stirring ([1]; at 5° C., tetrahydrofuran, 24 h): converted to Form α
SMILES: C[C@H](Nc1ncnc2[nH]cnc12)c1cc2cccc(Cl)c2c(=O)n1-c1ccccc1 [Form A, (S)-3-(1-(9H-purin-6-ylamino)ethyl)-8-chloro-2-phenylisoquinolin-1(2H)-one]

SMILES: C[C@H](Nc1ncnc2[nH]cnc12)c1cc2cccc(Cl)c2c(=O)n1-c1ccccc1 [Form C, (S)-3-(1-(9H-purin-6-ylamino)ethyl)-8-chloro-2-phenylisoquinolin-1(2H)-one]
Crystallinity after grinding [2]: decrease or turns into amorphous

Weight gain under 80% RH ([3]; listed as Crystalline Form α of compound of Formula (I)): 0.67%
Weight gain under 80% RH ([3]; listed as crystalline Form α): 0.67%
SMILES: C[C@H](Nc1ncnc2[nH]cnc12)c1cc2cccc(Cl)c2c(=O)n1-c1ccccc1 [Form α, (S)-3-(1-(9H-purin-6-ylamino)ethyl)-8-chloro-2-phenylisoquinolin-1(2H)-one]
Stability relative to anhydrous Form A in CN103648499A ([1]; conclusion from stirring the mixture at 5° C.): more thermodynamic stable than Form A in CN103648499A; also recorded: more stable than anhydrous Form A in CN103648499A
Hygroscopicity according to hygroscopic test guidelines ([3]; Chinese Pharmacopoeia 2010 definition, 80% Relative Humidity): slightly hygroscopic (increase in mass is less than 2 percent and equal to or greater than 0.2 percent)
